Laboratory results reported in patent publication US20090325923A1, “NEW METHOD FOR THE TREATMENT OF INFLAMMATORY DISEASES” (TOPOTARGET SWITZERLAND SA, priority 2006, published 2009).

System: Human PBMC
Assay: MTT cell viability assay in PBMC
Type: cell-based
Settings: overnight increasing doses of FK866, LPS 6 h
Experimental: (§1) (A) Human PBMC were isolated and cultured overnight with increasing doses of FK866, and then stimulated with LPS for 6 h. At the end of the culture, cell viability was assessed using the MTT (3-(4,5-Dimethylthiazol-2-yl)-2,5-diphenyltetrazolium bromide) assay.
as §1, with “This example illustrates that the inhibition of proinflammatory cytokine secretion induced by lowering intracellular NAD levels is not due to apoptosis induction.” for “(A)”

O=C(/C=C/c1cccnc1)NCCCCC1CCN(C(=O)c2ccccc2)CC1 [FK866, (E)-N-[4-(1-benzoylpiperidin-4-yl)butyl]-3-(pyridine-3-yl)-acrylamide]
cell viability (MTT): not affected
